From ChEMBL document CHEMBL1201862, “PubChem BioAssay data set” (2004)
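Method: 48-hour compound exposure of cells in 96-well plates, five concentrations, linear interpolation of endpoints. GI50 marks 50% less growth.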 Activity calls are given as the source filed them. Cut-off read from the data, not from the text of the source: active = GI50 up to about 1.1 µM and inactive = higher.

How the values were obtained:
Experiment in all cases: growth of human tumour cells (NCI), 48 h
A549 = system: A549
SK-MEL-2 = system: SK-MEL-2
HCC 2998 = system: HCC 2998
SNB-19 = system: SNB-19
PC-3 = system: PC-3
Malme-3M = system: Malme-3M
HCT-15 = system: HCT-15
IGROV-1 = system: IGROV-1
U-251 = system: U-251
HOP-62 = system: HOP-62
OVCAR-4 = system: OVCAR-4
RPMI-8226 = system: RPMI-8226
COLO 205 = system: COLO 205
EKVX = system: EKVX
UACC-257 = system: UACC-257
A498 = system: A498
T47D = system: T47D
SF-268 = system: SF-268

SMILES	GI50 (A549)	GI50 (SK-MEL-2)	GI50 (HCC 2998)	GI50 (SNB-19)	GI50 (PC-3)	GI50 (Malme-3M)	GI50 (HCT-15)	GI50 (IGROV-1)	GI50 (U-251)	GI50 (HOP-62)	GI50 (OVCAR-4)	GI50 (RPMI-8226)	GI50 (COLO 205)	GI50 (EKVX)	GI50 (UACC-257)	GI50 (A498)	GI50 (T47D)	GI50 (SF-268)
Clc1ccc(Nc2nnc(CCCCCCCCc3nnc(Nc4ccc(Cl)cc4)o3)o2)cc1	28.1 µM (inactive)	50.8 µM (inactive)	36.4 µM (inactive)	26.3 µM (inactive)	38.1 µM (inactive)	11 µM (inactive)	32.6 µM	8 µM (inactive)	38.3 µM (inactive)	37.9 µM (inactive)	51.6 µM (inactive)	21.6 µM (inactive)	39.9 µM (inactive)	39 µM (inactive)	37.4 µM (inactive)	37.1 µM (inactive)		
ClCc1c(-c2ccccc2)nn(-c2ccccc2)c1CCl	16.5 µM (inactive)	13.2 µM (inactive)	13.9 µM (inactive)	18.6 µM (inactive)	9.71 µM (inactive)	16.4 µM (inactive)	12.2 µM	6.79 µM (inactive)	12.3 µM (inactive)		1.65 µM (inactive)	2.26 µM (inactive)	5.94 µM (inactive)		15.3 µM (inactive)		2 µM (inactive)	16.6 µM (inactive)
O=C1Oc2ccccc2C(=O)/C1=C/NC(=S)NCc1ccccc1	65.2 µM (inactive)	19.3 µM (inactive)	72.4 µM (inactive)	43.6 µM (inactive)	54.3 µM (inactive)		49.5 µM	38.8 µM (inactive)	57.3 µM (inactive)	57.9 µM (inactive)	73.8 µM (inactive)		> 100 µM (inactive)	> 100 µM (inactive)	90.6 µM (inactive)		81.7 µM (inactive)	
COc1ccc(NC(=O)CC/C(CC(=O)c2ccco2)=N/Nc2ccc([N+](=O)[O-])cc2[N+](=O)[O-])cc1	> 100 µM (inactive)	72.1 µM (inactive)	> 100 µM (inactive)	> 100 µM (inactive)		> 100 µM (inactive)	> 100 µM	> 100 µM (inactive)	> 100 µM (inactive)	> 100 µM (inactive)	96.2 µM (inactive)	17.1 µM (inactive)	> 100 µM (inactive)	> 100 µM (inactive)	49.8 µM (inactive)	> 100 µM (inactive)		64 µM (inactive)
CN(C)C1(c2cc3ccccc3s2)CCCCC1	51.2 µM (inactive)	24.3 µM (inactive)	22.9 µM (inactive)	49 µM (inactive)	28.8 µM (inactive)		37.4 µM	36.1 µM (inactive)	43.6 µM (inactive)	58.1 µM (inactive)	47.2 µM (inactive)		26.4 µM (inactive)	> 100 µM (inactive)	28.1 µM (inactive)	32.8 µM (inactive)		18.8 µM (inactive)
O=C1CC(=O)N(C2CCCCC2)C(=O)N1c1ccccc1S(=O)(=O)Oc1ccccc1	> 100 µM (inactive)	> 100 µM (inactive)	> 100 µM (inactive)	> 100 µM (inactive)	> 100 µM (inactive)		> 100 µM	14.9 µM (inactive)	> 100 µM (inactive)	33 µM (inactive)	> 100 µM (inactive)	26.5 µM (inactive)	> 100 µM (inactive)	> 100 µM (inactive)	> 100 µM (inactive)	> 100 µM (inactive)	85.1 µM (inactive)	90.6 µM (inactive)
Clc1cccc(-c2nc3cccc4c3n2Cc2ncccc2-4)c1	21.9 µM (inactive)		> 100 µM (inactive)	23.9 µM (inactive)	73.6 µM (inactive)	> 100 µM (inactive)	> 100 µM	54.3 µM (inactive)	30.3 µM (inactive)	36.1 µM (inactive)	36 µM (inactive)		> 100 µM (inactive)	> 100 µM (inactive)	> 100 µM (inactive)	> 100 µM (inactive)	> 100 µM (inactive)	32.8 µM (inactive)
